Results taken from article PMC5218480 (PLoS ONE, 2017).

Test system: MV-4-11 cells
Test: Gene expression microarray analysis (Affymetrix PrimeView) and GSEA
Assay type: cell-based, human
Parameters: RFU PODN (11730768_x_at) / Fold change /veh PODN (11730768_x_at) / RFU LINC00158 (11744669_a_at) / Fold change /veh LINC00158 (11744669_a_at) / RFU DUSP10 (11751237_a_at) / Fold change /veh DUSP10 (11751237_a_at) / RFU ID3 (11757404_x_at) / Fold change /veh ID3 (11757404_x_at) / RFU PLEKHG5 (11737974_s_at) / Fold change /veh PLEKHG5 (11737974_s_at) / RFU LRRC4B (11730491_at) / Fold change /veh LRRC4B (11730491_at) / RFU GIMAP4 (11747438_a_at) / Fold change /veh GIMAP4 (11747438_a_at) / RFU KRT8 (11758183_x_at) / Fold change /veh KRT8 (11758183_x_at) / RFU CNN1 (11734310_a_at) / Fold change /veh CNN1 (11734310_a_at) / RFU VPS37D (11726825_at) / Fold change /veh VPS37D (11726825_at) / RFU C10orf10 (11716522_x_at) / Fold change /veh C10orf10 (11716522_x_at) / RFU KIR2DL2 /// KIR2DL4 /// KIR2DL5A /// KIR2DL5B /// KIR2DS1 /// KIR2DS2 /// KIR2DS3 /// KIR2DS4 /// KIR3DL3 /// KIR3DL3 /// KIR3DS1 (11738374_at) / Fold change /veh KIR2DL2 /// KIR2DL4 /// KIR2DL5A /// KIR2DL5B /// KIR2DS1 /// KIR2DS2 /// KIR2DS3 /// KIR2DS4 /// KIR3DL3 /// KIR3DL3 /// KIR3DS1 (11738374_at) / RFU C1QL1 (11718748_at) / Fold change /veh C1QL1 (11718748_at) / RFU TMPRSS4 (11747572_a_at) / Fold change /veh TMPRSS4 (11747572_a_at) / RFU HAMP (11756126_x_at) / Fold change /veh HAMP (11756126_x_at) / RFU RNFT2 (11725882_a_at) / Fold change /veh RNFT2 (11725882_a_at) / RFU NR4A2 (11747474_a_at) / Fold change /veh NR4A2 (11747474_a_at) / RFU ABCC12 (11746883_a_at) / Fold change /veh ABCC12 (11746883_a_at) / RFU TMEM136 (11760407_x_at) / Fold change /veh TMEM136 (11760407_x_at) / RFU CLDN22 /// WWC2 (11732394_at) / Fold change /veh CLDN22 /// WWC2 (11732394_at) / RFU HLA-DPB1 (11760878_x_at) / Fold change /veh HLA-DPB1 (11760878_x_at) / RFU SPINT1 (11716480_a_at) / Fold change /veh SPINT1 (11716480_a_at) / RFU GAP43 (11754022_s_at) / Fold change /veh GAP43 (11754022_s_at) / RFU A4GNT (11735810_at) / Fold change /veh A4GNT (11735810_at) / RFU PRB3 (11715151_x_at) / Fold change /veh PRB3 (11715151_x_at) / RFU TUBB4B (11761932_at) / Fold change /veh TUBB4B (11761932_at) / RFU CAPN14 (11732068_a_at) / Fold change /veh CAPN14 (11732068_a_at) / RFU TMCC2 (11721928_a_at) / Fold change /veh TMCC2 (11721928_a_at) / RFU IRGQ (11745062_a_at) / Fold change /veh IRGQ (11745062_a_at) / RFU FAM174B (11720279_a_at) / Fold change /veh FAM174B (11720279_a_at) / RFU TMPRSS4 (11748680_a_at) / Fold change /veh TMPRSS4 (11748680_a_at) / RFU FAM212B (11763350_a_at) / Fold change /veh FAM212B (11763350_a_at) / RFU PLEKHG5 (11743358_a_at) / Fold change /veh PLEKHG5 (11743358_a_at) / RFU ZSCAN30 (11745921_a_at) / Fold change /veh ZSCAN30 (11745921_a_at) / RFU CMKLR1 (11741424_a_at) / Fold change /veh CMKLR1 (11741424_a_at) / RFU LOC101060620 /// MAPK8IP1 (11723275_at) / Fold change /veh LOC101060620 /// MAPK8IP1 (11723275_at) / RFU SPTSSB (11747773_x_at) / Fold change /veh SPTSSB (11747773_x_at) / RFU PRSS12 (11739890_at) / Fold change /veh PRSS12 (11739890_at) / RFU BIN1 (11741810_x_at) / Fold change /veh BIN1 (11741810_x_at) / RFU WNT11 (11732464_a_at) / Fold change /veh WNT11 (11732464_a_at) / RFU C10orf10 (11716521_a_at) / Fold change /veh C10orf10 (11716521_a_at) / RFU C5orf56 (11738089_at) / Fold change /veh C5orf56 (11738089_at) / RFU CYB561 (11721691_x_at) / Fold change /veh CYB561 (11721691_x_at) / RFU ANKRD19P (11752326_a_at) / Fold change /veh ANKRD19P (11752326_a_at) / RFU OR2T12 /// OR2T33 /// OR2T8 (11738714_s_at) / Fold change /veh OR2T12 /// OR2T33 /// OR2T8 (11738714_s_at) / RFU VCAN (11748164_a_at) / Fold change /veh VCAN (11748164_a_at) / RFU JSRP1 (11732532_at) / Fold change /veh JSRP1 (11732532_at) / RFU KRTAP10-11 (11738290_x_at) / Fold change /veh KRTAP10-11 (11738290_x_at) / RFU MYO3A (11730013_a_at) / Fold change /veh MYO3A (11730013_a_at) / RFU EBF3 (11725865_a_at) / Fold change /veh EBF3 (11725865_a_at) / RFU CAMK2N1 (11719241_x_at) / Fold change /veh CAMK2N1 (11719241_x_at) / RFU C5orf56 (11738088_a_at) / Fold change /veh C5orf56 (11738088_a_at) / RFU OLFML3 (11715873_a_at) / Fold change /veh OLFML3 (11715873_a_at) / RFU LOC100653217 /// NTM (11731650_a_at) / Fold change /veh LOC100653217 /// NTM (11731650_a_at) / RFU MAPK11 (11762145_a_at) / Fold change /veh MAPK11 (11762145_a_at) / RFU FIZ1 (11724087_x_at) / Fold change /veh FIZ1 (11724087_x_at) / RFU OASL (11726364_x_at) / Fold change /veh OASL (11726364_x_at) / RFU SOX15 (11748057_x_at) / Fold change /veh SOX15 (11748057_x_at) / RFU CD79A (11719716_a_at) / Fold change /veh CD79A (11719716_a_at) / RFU HIST1H1D (11736915_at) / Fold change /veh HIST1H1D (11736915_at) / RFU CASKIN2 (11723855_a_at) / Fold change /veh CASKIN2 (11723855_a_at) / RFU LOC730098 (11760151_x_at) / Fold change /veh LOC730098 (11760151_x_at) / RFU OR4N2 (11742367_at) / Fold change /veh OR4N2 (11742367_at) / RFU PRRT2 (11749266_a_at) / Fold change /veh PRRT2 (11749266_a_at) / RFU SNX32 (11753110_a_at) / Fold change /veh SNX32 (11753110_a_at) / RFU CDHR5 (11726645_a_at) / Fold change /veh CDHR5 (11726645_a_at) / RFU RCAN1 (11760418_a_at) / Fold change /veh RCAN1 (11760418_a_at) / RFU FAM167A (11723789_a_at) / Fold change /veh FAM167A (11723789_a_at) / RFU FAM26E (11764081_at) / Fold change /veh FAM26E (11764081_at) / RFU ISYNA1 (11749810_s_at) / Fold change /veh ISYNA1 (11749810_s_at) / RFU ACY1 (11761880_at) / Fold change /veh ACY1 (11761880_at) / RFU 11764098_at / Fold change /veh 11764098_at / RFU SAMD14 (11745864_x_at) / Fold change /veh SAMD14 (11745864_x_at) / RFU NPB (11741838_a_at) / Fold change /veh NPB (11741838_a_at) / RFU TMPRSS6 (11731388_a_at) / Fold change /veh TMPRSS6 (11731388_a_at) / RFU KRTAP10-2 (11738614_at) / Fold change /veh KRTAP10-2 (11738614_at) / RFU ARHGAP8 /// PRR5-ARHGAP8 (11727945_x_at) / Fold change /veh ARHGAP8 /// PRR5-ARHGAP8 (11727945_x_at) / RFU KRTAP5-7 /// NADSYN1 (11734609_at) / Fold change /veh KRTAP5-7 /// NADSYN1 (11734609_at) / RFU RASL12 (11751679_a_at) / Fold change /veh RASL12 (11751679_a_at) / RFU CDKN2B (11736163_a_at) / Fold change /veh CDKN2B (11736163_a_at) / RFU PRF1 (11729649_at) / Fold change /veh PRF1 (11729649_at) / RFU, ZNF638 /// ZNF638-IT1 / Fold change vs veh, ZNF638 /// ZNF638-IT1 / RFU, PANK3 / Fold change vs veh, PANK3 / RFU, SH3YL1 / Fold change vs veh, SH3YL1 / RFU, ZEB2 / Fold change vs veh, ZEB2 / RFU, NRIP1 / Fold change vs veh, NRIP1 / RFU, PTTG1IP / Fold change vs veh, PTTG1IP / RFU, CAPN2 / Fold change vs veh, CAPN2 / RFU, MED14 / Fold change vs veh, MED14 / RFU, SNORA58 / Fold change vs veh, SNORA58 / RFU, C1orf63 / Fold change vs veh, C1orf63 / RFU, LRRFIP1 / Fold change vs veh, LRRFIP1 / RFU, NDUFAF7 / Fold change vs veh, NDUFAF7 / RFU, SLC12A2 / Fold change vs veh, SLC12A2 / RFU, IBTK / Fold change vs veh, IBTK / RFU, ESF1 / Fold change vs veh, ESF1 / Fold change vs veh, TMEM50B / RFU, TAOK1 / Fold change vs veh, TAOK1 / RFU, ACBD3 / Fold change vs veh, ACBD3 / RFU, TMA16 / Fold change vs veh, TMA16 / RFU, RWDD3 / Fold change vs veh, RWDD3 / RFU, BCAT1 / Fold change vs veh, BCAT1 / RFU, EDEM3 / Fold change vs veh, EDEM3 / RFU, TMEM33 / Fold change vs veh, TMEM33 / RFU, WDR75 / Fold change vs veh, WDR75 / RFU, AHCTF1 / Fold change vs veh, AHCTF1 / RFU, TFRC / Fold change vs veh, TFRC / RFU, ZDHHC17 / Fold change vs veh, ZDHHC17 / RFU, NOM1 / Fold change vs veh, NOM1 / RFU, ARL8B / Fold change vs veh, ARL8B / RFU, ZBTB11 / Fold change vs veh, ZBTB11 / RFU, TAMM41 / Fold change vs veh, TAMM41 / RFU, KIAA1704 /// LOC100996395 / Fold change vs veh, KIAA1704 /// LOC100996395 / RFU, ING1 / Fold change vs veh, ING1 / RFU, TRMT61B / Fold change vs veh, TRMT61B / RFU, FUBP3 / Fold change vs veh, FUBP3 / RFU, TP53 / Fold change vs veh, TP53 / RFU, TNKS2 / Fold change vs veh, TNKS2 / RFU, ZFP14 / Fold change vs veh, ZFP14 / RFU, ACTR2 / Fold change vs veh, ACTR2 / RFU, PPP3R1 / Fold change vs veh, PPP3R1 / RFU, PIK3R1 / Fold change vs veh, PIK3R1 / RFU, HNRNPA1 / Fold change vs veh, HNRNPA1 / RFU, RNF170 / Fold change vs veh, RNF170 / RFU, ZNF28 / Fold change vs veh, ZNF28 / RFU, RNGTT / Fold change vs veh, RNGTT / RFU, OGT / Fold change vs veh, OGT / RFU, BRD1 / Fold change vs veh, BRD1 / RFU, MARS / Fold change vs veh, MARS / RFU, ZNF655 / Fold change vs veh, ZNF655 / RFU, FAHD1 / Fold change vs veh, FAHD1 / RFU, BDP1 / Fold change vs veh, BDP1 / RFU, LRRCC1 / Fold change vs veh, LRRCC1 / RFU, ARID1A / Fold change vs veh, ARID1A / RFU, ZNF146 / Fold change vs veh, ZNF146 / RFU, ZNF330 / Fold change vs veh, ZNF330 / RFU, GPN3 / Fold change vs veh, GPN3 / RFU, C9orf123 / Fold change vs veh, C9orf123 / RFU, N4BP2L2 / Fold change vs veh, N4BP2L2 / RFU, ARFIP1 / Fold change vs veh, ARFIP1 / RFU, FAM179B / Fold change vs veh, FAM179B / RFU, BCL10 / Fold change vs veh, BCL10 / RFU, UHRF1BP1L / Fold change vs veh, UHRF1BP1L / RFU, BET1 / Fold change vs veh, BET1 / RFU, CNOT2 / Fold change vs veh, CNOT2 / RFU, ZNF268 / Fold change vs veh, ZNF268 / Fold change vs veh, ZNF507 / RFU, DGCR2 / Fold change vs veh, DGCR2 / RFU, WDSUB1 / Fold change vs veh, WDSUB1 / Fold change vs veh, HSP90B1 /// MIR3652 / RFU, ADSS / Fold change vs veh, ADSS / RFU, GK / Fold change vs veh, GK / RFU, ZNF148 / Fold change vs veh, ZNF148 / RFU, TAF9 / Fold change vs veh, TAF9 / RFU, SLC1A5 / Fold change vs veh, SLC1A5 / RFU, SLMO2 / Fold change vs veh, SLMO2 / RFU, ABCC4 / Fold change vs veh, ABCC4 / RFU, LOC101060439 /// RAP1B / Fold change vs veh, LOC101060439 /// RAP1B / RFU, RFX7 / Fold change vs veh, RFX7 / RFU, GTPBP10 / Fold change vs veh, GTPBP10 / RFU, CNEP1R1 / Fold change vs veh, CNEP1R1 / RFU, BIVM-ERCC5 /// ERCC5 / Fold change vs veh, BIVM-ERCC5 /// ERCC5 / RFU, ILF3 / Fold change vs veh, ILF3 / RFU 11762660_at / Fold change /veh 11762660_at / RFU VCAN (11757783_s_at) / Fold change /veh VCAN (11757783_s_at) / RFU DDX43 (11728927_at) / Fold change /veh DDX43 (11728927_at) / RFU KRT8 (11758188_x_at) / Fold change /veh KRT8 (11758188_x_at) / RFU NKD1 (11759106_at) / Fold change /veh NKD1 (11759106_at) / RFU SRD5A1 (11742802_a_at) / Fold change /veh SRD5A1 (11742802_a_at) / RFU TPSAB1 /// TPSB2 (11721975_s_at) / Fold change /veh TPSAB1 /// TPSB2 (11721975_s_at) / RFU GSTM3 (11746129_a_at) / Fold change /veh GSTM3 (11746129_a_at) / RFU IL23R (11737362_x_at) / Fold change /veh IL23R (11737362_x_at) / RFU TMEM51 (11727254_a_at) / Fold change /veh TMEM51 (11727254_a_at) / RFU PIWIL2 (11732686_x_at) / Fold change /veh PIWIL2 (11732686_x_at) / RFU ORM1 (11744905_x_at) / Fold change /veh ORM1 (11744905_x_at) / RFU CCDC152 (11743942_at) / Fold change /veh CCDC152 (11743942_at) / RFU ECM1 (11717891_a_at) / Fold change /veh ECM1 (11717891_a_at) / RFU IL23R (11748794_a_at) / Fold change /veh IL23R (11748794_a_at) / RFU TNFAIP8L3 (11732012_x_at) / Fold change /veh TNFAIP8L3 (11732012_x_at) / RFU MBOAT4 (11741988_at) / Fold change /veh MBOAT4 (11741988_at) / RFU 11764193_at / Fold change /veh 11764193_at / RFU TMEM53 (11763286_at) / Fold change /veh TMEM53 (11763286_at) / RFU MAGEB2 (11727129_at) / Fold change /veh MAGEB2 (11727129_at) / RFU TMEM200A (11744735_a_at) / Fold change /veh TMEM200A (11744735_a_at) / RFU CCDC152 (11751479_a_at) / Fold change /veh CCDC152 (11751479_a_at) / RFU FAM211A (11726209_a_at) / Fold change /veh FAM211A (11726209_a_at) / RFU RGS16 (11746705_a_at) / Fold change /veh RGS16 (11746705_a_at) / RFU VCAN (11755009_s_at) / Fold change /veh VCAN (11755009_s_at) / RFU RHOB (11743442_s_at) / Fold change /veh RHOB (11743442_s_at) / RFU RGS16 (11720943_a_at) / Fold change /veh RGS16 (11720943_a_at) / RFU RGS16 (11720944_at) / Fold change /veh RGS16 (11720944_at) / RFU, VPS4B / Fold change vs veh, VPS4B / RFU, CREB1 / Fold change vs veh, CREB1 / RFU, DNAJC13 / Fold change vs veh, DNAJC13 / RFU, GNAQ / Fold change vs veh, GNAQ / RFU, CDK5R1 / Fold change vs veh, CDK5R1 / RFU, ZRANB3 / Fold change vs veh, ZRANB3 / RFU, CUL4A / Fold change vs veh, CUL4A / RFU, CCNY / Fold change vs veh, CCNY / RFU, UFL1 / Fold change vs veh, UFL1 / RFU, COG3 / Fold change vs veh, COG3 / RFU, DIAPH2 / Fold change vs veh, DIAPH2 / RFU, SKA2 / Fold change vs veh, SKA2 / RFU, AFF3 / Fold change vs veh, AFF3 / RFU, LMF1 / Fold change vs veh, LMF1 / RFU, IPO11 / Fold change vs veh, IPO11 / RFU, DFFB / Fold change vs veh, DFFB / RFU, FOXP1 / Fold change vs veh, FOXP1 / RFU, CARD8 / Fold change vs veh, CARD8 / RFU, STRN3 / Fold change vs veh, STRN3 / RFU, ADK / Fold change vs veh, ADK / RFU, RASSF2 / Fold change vs veh, RASSF2 / RFU, WIPF1 / Fold change vs veh, WIPF1 / RFU, LARP1B / Fold change vs veh, LARP1B / RFU, RASA1 / Fold change vs veh, RASA1 / RFU, RB1 / Fold change vs veh, RB1 / RFU, PPFIA1 / Fold change vs veh, PPFIA1 / RFU, MAT2A / Fold change vs veh, MAT2A / RFU, CCT5 / Fold change vs veh, CCT5 / RFU, WDR92 / Fold change vs veh, WDR92 / RFU, CUX1 / Fold change vs veh, CUX1 / RFU, TTC7A / Fold change vs veh, TTC7A / RFU, TMEM135 / Fold change vs veh, TMEM135 / RFU, DEPTOR / Fold change vs veh, DEPTOR / RFU, CPM / Fold change vs veh, CPM / RFU, DNAJB6 / Fold change vs veh, DNAJB6 / RFU, CACNA2D3 / Fold change vs veh, CACNA2D3 / RFU, DTX4 / Fold change vs veh, DTX4 / RFU, TFCP2 / Fold change vs veh, TFCP2 / RFU, GMCL1 /// GMCL1P1 / Fold change vs veh, GMCL1 /// GMCL1P1 / RFU, AEBP2 / Fold change vs veh, AEBP2 / RFU, SNHG1 /// SNORD22 /// SNORD25 /// SNORD26 /// SNORD27 /// SNORD28 /// SNORD29 /// SNORD31 / Fold change vs veh, SNHG1 /// SNORD22 /// SNORD25 /// SNORD26 /// SNORD27 /// SNORD28 /// SNORD29 /// SNORD31 / Fold change (Aza/veh), C12orf56 (ProbeSet 11735607_a_at) / Fold change (ACY-1035/veh), C12orf56 (ProbeSet 11735607_a_at) / Fold change (Aza/veh), FGFR1OP (ProbeSet 11751329_s_at) / Fold change (ACY-1035/veh), FGFR1OP (ProbeSet 11751329_s_at) / Fold change (Aza/veh), VPS36 (ProbeSet 11739960_a_at) / Fold change (ACY-1035/veh), VPS36 (ProbeSet 11739960_a_at) / RFU SYPL1 (11715823_x_at) / Fold change /veh SYPL1 (11715823_x_at) / RFU IGFBP7 (11715501_s_at) / Fold change /veh IGFBP7 (11715501_s_at) / RFU REEP3 (11722064_at) / Fold change /veh REEP3 (11722064_at) / RFU IGLL1 (11728026_x_at) / Fold change /veh IGLL1 (11728026_x_at): dose or concentration left out as unconfirmed
Details: ProbeSet 11753616_s_at; LIST B

## Nc1ncn([C@@H]2O[C@H](CO)[C@@H](O)[C@H]2O)c(=O)n1 [azacitidine]
  Fold change vs veh, ARL8B: 0.84
